Values joined by “and” are separate entries in the source; they are usually repeats but may differ in a detail not shown here. Identical values can stand only once. Active and inactive are the calls of the source. No rule for the calls is given here.
What follows are compounds tested against Ubiquitin-conjugating enzyme E2 N (Homo sapiens) (UniProt P61088) (assay: Ubc13/Uev1a ubiquitination inhibitors, SAR follow-up, biochemical, TR-FRET, set 2 (AID 485351)). Details: in vitro Ubc13-Uev1a ubiquitination.
Chain of Ubiquitin-conjugating enzyme E2 N (Homo sapiens) (P61088 whole entry, looked up): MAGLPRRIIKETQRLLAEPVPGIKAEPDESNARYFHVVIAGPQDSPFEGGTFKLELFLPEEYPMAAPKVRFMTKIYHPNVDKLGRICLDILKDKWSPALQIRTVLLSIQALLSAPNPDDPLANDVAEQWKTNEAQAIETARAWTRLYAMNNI
With `CCCCn1c(N)c(S(=O)(=O)c2ccc(C)cc2)c2nc3ccccc3nc21` the IC50 was 2.08 µM and 0.875 µM.
With `C=CCn1c(NS(=O)(=O)c2ccccc2)c(S(=O)(=O)c2ccc(C)cc2)c2nc3ccccc3nc21` the IC50 was 0.769 µM.
For `COC(=O)C1=C(C(=O)OC)C2([C@@H](Cc3ccccc3)Nc3ccc(Cl)cc3)C=CC1O2` (some centres undefined), the IC50 was > 100 µM (inactive).
`CCCN1C(=O)C(NC(C)=O)c2cc(OC)ccc21` (centres undefined) was tested, and the IC50 was > 100 µM (inactive).
Compound `CCCCn1c(NC(=O)C2CCCCC2)c(C#N)c2nc3ccccc3nc21` has an IC50 of 0.499 µM.
`COC(=O)C1=C(C(=O)OC)C2([C@H](C)Nc3ccc(Cl)cc3)C=CC1O2` (some centres undefined) showed an IC50 of 53 µM.
For `COc1ccc2c(c1)C(NC(C)=O)C(=O)N2CC1COc2ccccc2O1` (centres undefined), the IC50 was > 100 µM (inactive).
`COC(=O)C1=C(C(=O)OC)C2([C@@H](C)Nc3ccccc3)C=CC1O2` (some centres undefined) was tested, and the IC50 was > 100 µM (inactive).
For `C=CC[C@H](N(Cc1ccccc1)/C(=C\C(=O)OC)C(=O)OC)C12C=CC(O1)C(C(=O)OC)=C2C(=O)OC` (some centres undefined), the IC50 was > 100 µM (inactive).
`CCC[C@@H](Nc1ccccc1)C12C=CC(O1)C(C(=O)OC)=C2C(=O)OC` (some centres undefined) was tested, and the IC50 was > 100 µM (inactive).
For `COc1cc(/C=C2\C(=O)N(c3ccccc3)N=C2C)ccc1OC(=O)c1cccs1`, the IC50 was > 100 µM (inactive).
In the case of `CCCC1=NN(c2ccc(C(=O)O)cc2)C(=O)/C1=C/c1ccc(OCc2ccccc2)c(OC)c1`, the IC50 is reported as > 100 µM (inactive).
`CCCCn1c(NC(=O)CC)c(S(=O)(=O)c2ccc(C)cc2)c2nc3ccccc3nc21` showed an IC50 of 0.742 µM.
In the case of `COC(=O)C1=C(C(=O)OC)C2([C@H](Cc3ccccc3)Nc3ccc(OC)cc3)C=CC1O2` (some centres undefined), the IC50 is reported as > 100 µM (inactive).
`C=CC[C@H](Nc1ccc(OC)cc1)C12C=CC(O1)C(C(=O)OC)=C2C(=O)OC` (some centres undefined) was tested, and the IC50 was > 100 µM (inactive).
For `CCCC1=NN(c2ccccc2)C(=O)/C1=C\c1ccc(O)cc1`, the IC50 was > 100 µM (inactive).
For `C=CCC(Nc1ccccc1)C12C=CC(O1)C(C(=O)OC)=C2C(=O)OC` (centres undefined), the IC50 was > 100 µM (inactive).
`COc1ccc2c(c1)C(NC(C)=O)C(=O)N2CCOc1ccccc1` (centres undefined) was tested, and the IC50 was > 100 µM (inactive).
For `CCCC1=NN(c2ccc(C(=O)O)cc2)C(=O)/C1=C/c1ccc(O)cc1`, the IC50 was > 100 µM (inactive).
With `COc1cc(/C=C2\C(=O)N(c3ccccc3)N=C2C)ccc1O` the IC50 was > 100 µM (inactive).
With `COC(=O)C1=C(C(=O)OC)C2([C@@H](C)Nc3ccc(Cl)cc3)C=CC1O2` (some centres undefined) the IC50 was > 100 µM (inactive).
For `COC(=O)C1=C(C(=O)OC)C2([C@@H](C)Nc3ccc(OC)cc3)C=CC1O2` (some centres undefined), the IC50 was > 100 µM (inactive).
`CCCC1=NN(c2ccccc2)C(=O)/C1=C/c1ccc(OCc2ccc(C(=O)OC)cc2)cc1` was tested, and the IC50 was > 100 µM (inactive).
With `CCCCn1c(NC(=O)c2ccc(F)cc2)c(C#N)c2nc3ccccc3nc21` the IC50 was 1.16 µM.
Work on `Nc1c(C(=O)NCc2ccco2)c2nc3ccccc3nc2n1Cc1ccccc1` yielded an IC50 of 0.815 µM.
With `COc1ccc2c(c1)C(=O)C(=O)N2CCN1CCOCC1` the IC50 was > 100 µM (inactive).
Work on `COC(=O)C=C(NC(CO)(CO)CO)C(=O)OC` yielded an IC50 of 87.2 µM.
In the case of `C=CC[C@@H](Nc1ccccc1)C12C=CC(O1)C(C(=O)OC)=C2C(=O)OC` (some centres undefined), the IC50 is reported as > 100 µM (inactive).
With `CCCCn1c(NS(=O)(=O)c2ccccc2)c(S(=O)(=O)c2ccc(C)cc2)c2nc3ccccc3nc21` the IC50 was 0.741 µM.
`C=CC[C@@H](Nc1ccc(C)cc1)C12C=CC(O1)C(C(=O)OC)=C2C(=O)OC` (some centres undefined) was tested, and the IC50 was > 100 µM (inactive).
For `CCCCn1c(NC(=O)c2ccc(Cl)cc2)c(C#N)c2nc3ccccc3nc21`, the IC50 was 0.859 µM.
`CCCCn1c(NC(=O)c2cccc(Cl)c2)c(C#N)c2nc3ccccc3nc21` gave an IC50 of 1.34 µM.
For `c1ccc(CC(Nc2ccccc2)c2ccco2)cc1` (centres undefined), the IC50 was > 100 µM (inactive).
In the case of `COC(=O)C1=C(C(=O)OC)C2([C@H](C)Nc3ccccc3)C=CC1O2` (some centres undefined), the IC50 is reported as 80.2 µM.
Work on `CCCCNC(=O)c1c(NC(=O)c2ccccc2)n(Cc2ccccc2)c2nc3ccccc3nc12` yielded an IC50 of 18.8 µM.
`CCCCn1c(NC(C)=O)c(C#N)c2nc3ccccc3nc21` gave an IC50 of 0.669 µM.
For `COC(=O)C1=C(C(=O)OC)C2([C@@H](Cc3ccc(OC)cc3)Nc3ccccc3)C=CC1O2` (some centres undefined), the IC50 was > 100 µM (inactive).
`N#Cc1c(NC(=O)c2ccccc2Cl)n(C2CCCCC2)c2nc3ccccc3nc12` gave an IC50 of 2.84 µM.
In the case of `COC(=O)C1=C(C(=O)OC)C2([C@H](Cc3ccc(C)cc3)Nc3ccccc3)C=CC1O2` (some centres undefined), the IC50 is reported as > 100 µM (inactive).
For `CCC[C@H](Nc1ccccc1)C12C=CC(O1)C(C(=O)OC)=C2C(=O)OC` (some centres undefined), the IC50 was > 100 µM (inactive).
`CCCCn1c(NC(=O)c2ccc(OC)cc2)c(S(=O)(=O)c2ccc(C)cc2)c2nc3ccccc3nc21` showed an IC50 of 0.752 µM.
For `COC(=O)C1=C(C(=O)OC)C2([C@@H](Cc3ccccc3)Nc3ccc(C)cc3)C=CC1O2` (some centres undefined), the IC50 was > 100 µM (inactive).
With `COC(=O)C1=C(C(=O)OC)C2([C@@H](Cc3ccccc3)Nc3ccc(OC)cc3)C=CC1O2` (some centres undefined) the IC50 was > 100 µM (inactive).
`C=CC[C@@H](Nc1ccc(OC)cc1)C12C=CC(O1)C(C(=O)OC)=C2C(=O)OC` (some centres undefined) showed an IC50 of 78.9 µM.
With `CCCCn1c(NC(=O)c2ccc(F)cc2)c(S(=O)(=O)c2ccc(C)cc2)c2nc3ccccc3nc21` the IC50 was 1.32 µM.
For `CCCCn1c(NC(=O)c2ccccc2Cl)c(S(=O)(=O)c2ccccc2)c2nc3ccccc3nc21`, the IC50 was 1.68 µM.
`CCCC1=NN(c2ccc(C(=O)O)cc2)C(=O)/C1=C/c1ccc(OCc2ccccc2)cc1` was tested, and the IC50 was > 100 µM (inactive).
For `CCCCn1c(NC(=O)c2ccccc2)c(C#N)c2nc3ccccc3nc21`, the IC50 was 1.2 µM and 1 µM.
With `C=C[C@@H](Nc1ccccc1)C12C=CC(O1)C(C(=O)OC)=C2C(=O)OC` (some centres undefined) the IC50 was > 100 µM (inactive).
Work on `N#Cc1c(NC(=O)c2ccccc2Cl)n(Cc2ccccc2)c2nc3ccccc3nc12` yielded an IC50 of 2.78 µM.
With `CCC(=O)Nc1c(S(=O)(=O)c2ccccc2)c2nc3ccccc3nc2n1Cc1ccccc1` the IC50 was 0.755 µM.
In the case of `COC(=O)C1=C(C(=O)O)C2C=CC1([C@@H](Cc1ccccc1)Nc1ccccc1)O2` (some centres undefined), the IC50 is reported as > 100 µM (inactive).
With `COC(=O)C1=C(C(=O)OC)C2([C@@H](Cc3ccccc3)Nc3ccccc3)C=CC1O2` (some centres undefined) the IC50 was > 100 µM (inactive).
`C=CC[C@H](Nc1ccc(C)cc1)C12C=CC(O1)C(C(=O)OC)=C2C(=O)OC` (some centres undefined) was tested, and the IC50 was > 100 µM (inactive).
With `C=CC[C@H](Nc1ccc(Cl)cc1)C12C=CC(O1)C(C(=O)OC)=C2C(=O)OC` (some centres undefined) the IC50 was > 100 µM (inactive).
`C=CC[C@@H](N(Cc1ccccc1)/C(=C\C(=O)OC)C(=O)OC)C12C=CC(O1)C(C(=O)OC)=C2C(=O)OC` (some centres undefined) was tested, and the IC50 was > 100 µM (inactive).
In the case of `C=CC[C@@H](Nc1ccc(Cl)cc1)C12C=CC(O1)C(C(=O)OC)=C2C(=O)OC` (some centres undefined), the IC50 is reported as > 100 µM (inactive).
Compound `CCCCn1c(NC(=O)c2ccco2)c(S(=O)(=O)c2ccc(C)cc2)c2nc3ccccc3nc21` has an IC50 of 0.809 µM.
In the case of `COC(=O)C1=C(C(=O)OC)C2([C@H](Cc3ccccc3)Nc3ccc(C)cc3)C=CC1O2` (some centres undefined), the IC50 is reported as > 100 µM (inactive).
For `C=C[C@H](Nc1ccccc1)C12C=CC(O1)C(C(=O)OC)=C2C(=O)OC` (some centres undefined), the IC50 was 51.5 µM.
`CCCCn1c(NC(=O)c2ccccc2Cl)c(C#N)c2nc3ccccc3nc21` was tested, and the IC50 was 0.697 µM and 1.01 µM.
In the case of `COC(=O)C1=C(C(=O)OC)C2(C(Cc3ccc(F)cc3)Nc3ccccc3)C=CC1O2` (centres undefined), the IC50 is reported as > 100 µM (inactive).
For `COc1ccc2c(c1)C(NC(C)=O)C(=O)N2CCc1ccccc1` (centres undefined), the IC50 was > 100 µM (inactive).
For `C=CCn1c(NC(=O)c2ccccc2Cl)c(C#N)c2nc3ccccc3nc21`, the IC50 was 1.11 µM.
For `COc1ccc(CN2C(=O)C(NC(C)=O)c3ccccc32)cc1` (centres undefined), the IC50 was > 100 µM (inactive).
With `CCCCCn1c(NC(=O)c2ccco2)c(C(=O)OCC)c2nc3ccccc3nc21` the IC50 was 0.501 µM.
For `COCCNC(=O)c1c(NC(=O)c2ccccc2)n(Cc2ccccc2)c2nc3ccccc3nc12`, the IC50 was 0.656 µM.
`COC(=O)C1=C(C(=O)OC)C2([C@H](Cc3ccccc3)Nc3ccc(Cl)cc3)C=CC1O2` (some centres undefined) was tested, and the IC50 was > 100 µM (inactive).
`Cc1cc(C)c2c(c1)C(=O)C(=O)N2CCN1CCOCC1` was tested, and the IC50 was > 100 µM (inactive).
For `COC(=O)C1=C(C(=O)OC)C2([C@H](Cc3ccccc3)Nc3ccccc3)C=CC1O2` (some centres undefined), the IC50 was > 100 µM (inactive).
With `COCCn1c(NC(=O)c2ccc(Cl)cc2)c(S(=O)(=O)c2ccc(C)cc2)c2nc3ccccc3nc21` the IC50 was 1.74 µM.
With `CC(=O)NC1C(=O)N(CCN2CCOCC2)c2ccc(C)cc21` (centres undefined) the IC50 was > 100 µM (inactive).
With `COC(=O)C1=C(C(=O)OC)C2([C@@H](Cc3ccc(C)cc3)Nc3ccccc3)C=CC1O2` (some centres undefined) the IC50 was > 100 µM (inactive).
For `CCCCn1c(NC(=O)c2ccco2)c(C#N)c2nc3ccccc3nc21`, the IC50 was 0.777 µM.
For `COC(=O)[C@@H]1C2CCC([C@@H](Cc3ccccc3)Nc3ccccc3)(O2)[C@@H]1C(=O)OC` (some centres undefined), the IC50 was > 100 µM (inactive).
With `COc1cc(/C=C2\C(=O)N(c3ccccc3)N=C2C)ccc1OCc1ccccc1` the IC50 was > 100 µM (inactive).
For `C=CC[C@H](Nc1ccccc1)C12C=CC(O1)C(C(=O)OC)=C2C(=O)OC` (some centres undefined), the IC50 was > 100 µM (inactive).
`CCCCn1c(NC(=O)c2ccccc2)c(S(=O)(=O)c2ccc(C)cc2)c2nc3ccccc3nc21` was tested, and the IC50 was 1.95 µM and 1.1 µM.
In the case of `COC(=O)C1=C(C(=O)OC)C2([C@@H](C)Nc3ccc(C)cc3)C=CC1O2` (some centres undefined), the IC50 is reported as > 100 µM (inactive).
